Data published in article PMC4226674, “A phase I trial of the HIV protease inhibitor nelfinavir in adults with solid tumors” (Oncotarget, 2014).
“And” between values parts separate entries of the source, which are not always exact repeats. Equal values may be shown once.

Legend:
[1] = system: P-AKT S473, P-EIF2 alpha S51, ATF3, CHOP in PBMCs; test: Surrogate biomarkers in PBMCs by immunoblotting; assay type: in vivo, human
Procedure: Blood was collected in Vacutainer CPT collection tubes with sodium heparin (BD Biosciences cat# 362753) and mononuclear cells were isolated as per the manufacturer's instructions. PBMCs were washed with PBS and lysed in 2X LSB buffer, aliquotted and stored at -80°C. For analysis, equal amounts of protein per sample were run on 10-12% SDS-PAGE gels, then transferred onto nitrocellulose membranes. Membranes were blocked in 5% milk in TBS + 0.1% tween (TBST) and incubated with primary antibody diluted in 5% BSA in TBST at 4 degrees overnight. The next day membranes were washed, incubated with HRP-linked secondary antibody and developed using ECL chemiluminescent reagent (GE Healthcare) and X-ray film as per the manufacturers instructions. […] Antibodies to CHOP sc-7351 and ATF3 sc-188 were from Santa Cruz Biotechnology (Santa Cruz, CA).

[2] = system: advanced refractory solid tumors; test: Tumor response by RECIST and duration of therapy
Procedure: Physical examinations, toxicity assessments and laboratory analyses were conducted weekly during cycle 1 and then every three weeks beginning cycle 2. An electrocardiogram was performed every cycle, and restaging scans were performed at baseline and every two cycles thereafter. Subjects remained on study until disease progression (as determined by RECIST), severe toxicity, or individual choice.
Tumor response was assessed according to Response Evaluation Criteria in Solid Tumors (RECIST) [34] every two cycles.

liposarcoma = conditions: cited from earlier work
ATF3 and/or CHOP = test: ER stress markers ATF3/CHOP in PBMCs by immunoblotting; assay type: in vivo, human; conditions: DL4 (3125 mg bid)
Procedure: Peripheral blood mononuclear cells (PBMCs) were collected at baseline, and then twice after starting nelfinavir: cycle 1 day 7 and cycle 1 day 42. Levels of P-AKT S473, P-EIF2 alpha S51, ATF3 and CHOP in PBMCs before and after nelfinavir were analyzed by immunoblotting. Blood was collected in Vacutainer CPT collection tubes with sodium heparin (BD Biosciences cat# 362753) and mononuclear cells were isolated as per the manufacturer's instructions. PBMCs were washed with PBS and lysed in 2X LSB buffer [33], aliquotted and stored at -80°C. For analysis, equal amounts of protein per sample were run on 10-12% SDS-PAGE gels, then transferred onto nitrocellulose membranes. Membranes were blocked in 5% milk in TBS + 0.1% tween (TBST) and incubated with primary antibody diluted in 5% BSA in TBST at 4 degrees overnight. The next day membranes were washed, incubated with HRP-linked secondary antibody and developed using ECL chemiluminescent reagent (GE Healthcare) and X-ray film as per the manufacturers instructions. The amount of P-AKT S473, P-EIF2 alpha S51, ATF3 or CHOP in the PBMCs at C1D7 and C1D42 were compared against a baseline sample for each patient, (prior to receiving nelfinavir). Antibodies against P-AKT S473 #4060, P-EIF2 alpha S51 #3398 and β-Actin #4970 were from Cell Signaling Technology (Danvers, MA). […]

Cc1c(O)cccc1C(=O)N[C@@H](CSc1ccccc1)[C@H](O)CN1C[C@H]2CCCC[C@H]2C[C@H]1C(=O)NC(C)(C)C [nelfinavir, Nelfinavir]
biomarker changes in PBMCs from baseline ([1]; DL1 or DL2 (1250, 1875 mg bid)): no biomarker changes | subjects with decrease in P-AKT S473 or increase in EIF2 alpha S51 phosphorylation ([1]; DL3 (2500 mg bid)): 1 out of 3 | subjects showing changes in 3 of 4 biomarkers evaluated ([1]; DL4 (3125 mg bid)): 3 | effect on markers of ER stress in peripheral blood mononuclear cells ([1]; in vivo): induced markers of ER stress | time on study, two of the subjects with NET of the midgut ([2]; 3125 mg BID): at least 8 months | subjects remaining on study for 8 months or more ([2]; 3125 mg BID MTD, progressed prior to study entry (four subjects)): 36% | ORR (confirmed partial response) at the MTD ([2]; 3125 mg bid expansion cohort, 11 evaluable subjects): 9% and 9.1% | ORR in the overall population ([2]; 21 evaluable subjects, all dose levels): 4.8% | minor responses in subjects with neuroendocrine tumors ([2]; NET of the midgut or pancreatic origin, MTD): two | subjects with stable disease for more than 6 months ([2]; expansion cohort at the MTD): Thirty-six | levels of circulating chromogranin, synaptophysin, and/or urinary 5-HIAA ([2]; responders with NET and carcinoid syndrome): transient decreases | time to improvement of carcinoid syndrome symptoms (flushing and diarrhea) ([2]; responders with NET that had carcinoid syndrome): ≤ 7 days | Duration of therapy ([2]; subject 1, SCLC, 1250 mg BID): 1.4 mos. | Duration of therapy ([2]; subject 3, SCLC, 1250 mg BID): 1.4 mos. | Duration of therapy ([2]; subject 4, SCLC, 1250 mg BID): 1.4 mos. | Duration of therapy ([2]; subject 5, Anaplastic Thyroid, 1875 mg BID): 1.4 mos. | Duration of therapy ([2]; subject 7, Differentiated Thyroid, 1875 mg BID): 2.8 mos. | Duration of therapy ([2]; subject 8, NSCLC, 1875 mg BID): 3.5 mos. | Duration of therapy ([2]; subject 9, Colorectal, 2500 mg BID): 1.4 mos. | Duration of therapy ([2]; subject 10, Pancreatic Adenocarcinoma, 2500 mg BID): 2.8 mos. | Duration of therapy ([2]; subject 11, NSCLC, 2500 mg BID): 4.1 mos. | Duration of therapy ([2]; subject 12, Differentiated thyroid, 3125 mg BID): 2.1 mos. | Duration of therapy ([2]; subject 14, Renal Cell Cancer, 3125 mg BID): 1.4 mos. | Duration of therapy ([2]; subject 17, Adenoid Cystic, 3125 mg BID): 11 mos. and 11.0 mos. | Duration of therapy ([2]; subject 18, Neuroendocrine tumor, 3125 mg BID): 8.3 mos. | Duration of therapy ([2]; subject 19, Colorectal, 3125 mg BID): 4.1 mos. | Duration of therapy ([2]; subject 21, Adenoid Cystic, 3750 mg BID): 1.4 mos. | Duration of therapy ([2]; subject 23, Prostate, 3125 mg BID): 1.0 mos. | Duration of therapy ([2]; subject 24, SCLC, 3125 mg BID): 2.8 mos. | Duration of therapy ([2]; subject 25, Colorectal, 3125 mg BID): 2.8 mos. | Duration of therapy ([2]; subject 26, Neuroendocrine tumor, 3125 mg BID): 12.4 mos. | Duration of therapy ([2]; subject 27, Neuroendocrine tumor, 3125 mg BID): 3.5 mos. | Duration of therapy ([2]; subject 28, Neuroendocrine tumor (midgut, carcinoid syndrome), 3125 mg BID): 23.5 mos. | additional time on nelfinavir off study with stable disease ([2]; subject that achieved a PR, NET of the midgut): six | MTD in liposarcoma patients (liposarcoma; Phase I trial): MTD was not reached | dose above which PK non-linearity was found (liposarcoma; liposarcoma patients): above 3000 mg bid | dose at which auto-induction was noted (highest dose evaluated) (liposarcoma; liposarcoma patients): 4125 mg BID | samples showing an increase in ATF3 and/or CHOP (ATF3 and/or CHOP): 27%
